Data taken from ChEMBL document CHEMBL1201862, “PubChem BioAssay data set” (2004).
Activity calls are given as the source filed them.

Columns and labels:
[1] = biological target: T1, DNA repair and recombination protein RAD54-like (Homo sapiens, UniProt Q92698); test: inhibitors of human RAD54 branch migration, confirmation, biochemical, fluorescence, cherry-picked samples, dose series (AID 651657); format: functional
T1 sequence (Q92698 whole entry): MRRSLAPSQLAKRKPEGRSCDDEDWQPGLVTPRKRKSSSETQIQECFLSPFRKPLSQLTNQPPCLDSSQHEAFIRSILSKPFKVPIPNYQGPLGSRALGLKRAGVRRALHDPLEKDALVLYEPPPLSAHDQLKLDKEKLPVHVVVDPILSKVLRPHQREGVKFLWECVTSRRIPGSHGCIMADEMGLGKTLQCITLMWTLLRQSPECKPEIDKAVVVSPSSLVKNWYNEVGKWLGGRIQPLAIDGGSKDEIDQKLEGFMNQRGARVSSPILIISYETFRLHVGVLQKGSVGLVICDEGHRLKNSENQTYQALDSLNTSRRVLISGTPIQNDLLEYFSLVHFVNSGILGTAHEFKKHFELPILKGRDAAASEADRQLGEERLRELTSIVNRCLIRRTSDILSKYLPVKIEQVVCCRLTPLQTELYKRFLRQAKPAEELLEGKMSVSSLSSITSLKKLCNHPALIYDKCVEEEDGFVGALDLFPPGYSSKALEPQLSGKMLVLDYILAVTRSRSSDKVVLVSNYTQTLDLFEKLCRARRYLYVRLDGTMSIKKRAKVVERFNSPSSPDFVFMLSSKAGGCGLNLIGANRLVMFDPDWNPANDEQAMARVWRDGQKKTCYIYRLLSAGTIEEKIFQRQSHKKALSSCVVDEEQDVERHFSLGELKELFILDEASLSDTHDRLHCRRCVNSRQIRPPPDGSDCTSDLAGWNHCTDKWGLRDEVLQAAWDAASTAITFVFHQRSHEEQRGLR

HEK293 [2] = test: cells; format: functional, cell-based; settings: Homo sapiens
[3] = DNA binding of candidate compounds, dose response, artefact control for RAD54 inhibitor project, biochemical, fluorescence polarization, cherry-pick (AID 651673); format: functional
[4] = biological target: T2, Nuclear receptor subfamily 0 group B member 1 (Homo sapiens, UniProt P51843); test: Luminescence-based cell-based high throughput dose response assay for inhibitors of the orphan nuclear receptor subfamily 0, group B, member 1 (DAX1; NR0B1). [Related pubchem assays (depositor defined):AID504766, AID504790]; format: functional
T2 sequence (P51843 whole entry): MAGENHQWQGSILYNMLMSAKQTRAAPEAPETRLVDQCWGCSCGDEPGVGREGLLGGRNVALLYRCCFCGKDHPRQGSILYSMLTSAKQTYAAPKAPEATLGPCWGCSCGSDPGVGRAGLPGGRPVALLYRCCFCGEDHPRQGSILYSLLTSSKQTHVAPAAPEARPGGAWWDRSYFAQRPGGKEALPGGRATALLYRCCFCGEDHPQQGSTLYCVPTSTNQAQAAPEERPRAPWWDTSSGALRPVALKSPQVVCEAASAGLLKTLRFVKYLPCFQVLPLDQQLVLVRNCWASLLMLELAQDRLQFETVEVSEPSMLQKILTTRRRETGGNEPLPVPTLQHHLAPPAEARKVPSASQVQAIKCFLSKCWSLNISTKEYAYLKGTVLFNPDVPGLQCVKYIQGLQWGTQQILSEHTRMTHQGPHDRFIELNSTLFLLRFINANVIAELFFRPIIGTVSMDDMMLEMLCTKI

[5] = biological target: T3, DNA repair protein RAD52 homolog (Homo sapiens, UniProt P43351); format: functional, biochemical
T3 sequence (P43351 whole entry): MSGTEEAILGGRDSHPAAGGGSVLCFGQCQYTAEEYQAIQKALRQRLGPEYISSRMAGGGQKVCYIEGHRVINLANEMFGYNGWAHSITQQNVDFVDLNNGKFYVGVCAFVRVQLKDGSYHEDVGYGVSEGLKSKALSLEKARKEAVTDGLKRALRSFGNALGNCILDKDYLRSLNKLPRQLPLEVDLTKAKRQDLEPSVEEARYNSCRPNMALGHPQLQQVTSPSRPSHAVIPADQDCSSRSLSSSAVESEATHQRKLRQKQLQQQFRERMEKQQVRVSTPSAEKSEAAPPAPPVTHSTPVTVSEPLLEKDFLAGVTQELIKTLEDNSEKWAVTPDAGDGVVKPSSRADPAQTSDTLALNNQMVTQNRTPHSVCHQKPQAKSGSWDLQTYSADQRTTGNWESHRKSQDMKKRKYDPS

HEK293 [6] = test: cells; settings: Homo sapiens
HEK293 [7] = test: cells; settings: Homo sapiens; remark: listed apart in the source

COc1cc2c3c(cccc3c1)C(=O)N(CCN1CCCC1)C2=O
active: AC50 [1] 2.16 µM | AC50 [3] 37.1 µM | AC50 [5] 5.72 µM
inactive: IC50 (HEK293 [2]) > 67.6 µM | IC50 [4] > 67.6 µM | EC50 (HEK293 [6]) > 59.7 µM | EC50 (HEK293 [7]) > 59.7 µM
